Experiments:
[1] = system: EpoR; assay: EpoR stability in UT-7 cells treated with cycloheximide ± LEN, EpoR immunoblot; type: cell-based; settings: cycloheximide + 1 μM LEN, CHX alone 56 h
Description: UT-7 cells (a cell line established from the bone marrow of a patient with acute megakaryoblastic leukemia) were treated with cycloheximide (CHX)±1 μM LEN for 0, 32, 40, 48, 56, 64, and 72 hours. The samples were then separated by SDS-PAGE, and immunoblotted with EpoR antibodies.

[2] = system: c-Kit; assay: c-Kit (Type 2 receptor) expression in UT-7 cells, immunoblot; type: cell-based; settings: LEN 0.1, 1, 10 μM, 1 hour
Description: (§1) To examine if the effects of LEN on receptor turnover are restricted to Type 1 cytokine receptors, the effects of LEN on cellular expression of IL3-R (Type 1) and c-Kit (Type 2) were examined. UT-7 cells were treated with increasing concentrations of LEN (0 μM (control), 0.1 μM, 1 μM, and 10 μM) for 1 hour. Samples were separated by SDS-PAGE and immunoblotted with IL3-R (Type 1) and c-Kit (Type 2) antibodies.

[3] = system: EpoR; assay: LEN-induced EpoR expression in HEK293T cells transfected with EpoR and/or RNF41, immunoblot densitometry; type: cell-based; settings: EpoR+pMet7-RNF41 vs EpoR HEK293T cells, LEN 0.1, 1, 10 μM, 1 hour
Description: FIG. 1 is a bar graph plotting the ratio of EpoR/Actin in EpoR and EpoR+pMet7-RNF41 HEK293T cells treated with increasing concentrations of LEN (0 μM (control), 0.1 μM, 1 μM, and 10 μM).
To confirm that RNF41 is the principal target of LEN responsible for EpoR stabilization, HEK293T cells were transfected with EpoR and/or RNF41 expression vectors using the calcium phosphate method. Transfected cells were treated with increasing concentrations of LEN (0 μM (control), 0.1 μM, 1 μM, and 10 μM) for 1 hour, separated by SDS-PAGE, and immunoblotted with EpoR antibodies. Steady state EpoR expression was lower in EpoR/RNF41 cells compared with cells transfected with EpoR alone.

[4] = system: EpoR; assay: EpoR ubiquitination in bortezomib pre-treated UT-7 cells, EpoR immunoprecipitation and ubiquitin immunoblot; type: cell-based; settings: bortezomib 20 nM 24 hours, then LEN 0.1, 1, 10 μM, 1 hour
Description: (§2) To investigate the effects of LEN on RNF41 function, protein specific ubiquitination after proteasomal inhibition with bortezomib followed by LEN treatment was investigated. UT-7 cells were pre-treated with bortezomib (20 nM), a proteasome inhibitor, for 24 hours. The cells were subsequently treated with increasing concentrations of LEN (0 μM (control), 0.1 μM, 1 μM, and 10 μM) for 1 hour. The effect of LEN treatment on RNF41 was assessed through immunoprecipitation of RNF41 and immunoblotting for ubiquitin. To verify the observed effects, total protein levels in whole cell lysates were also assessed for RNF41 expression. In order to determine EpoR ubiquitination changes upon LEN treatment, immunoprecipitation of EpoR was carried out followed by immunoblotting for ubiquitin.

[5] = biological target: T1, EpoR/RNF41 (Homo sapiens, UniProt Q9H4P4); assay: EpoR/RNF41 association in UT-7 cells, EpoR immunoprecipitation and RNF41 immunoblot; type: cell-based; settings: LEN 0.1, 1, 10 μM, 1 hour
T1 construct: endogenous in cells; host or cells: UT-7
T1 sequence (Q9H4P4 1-317): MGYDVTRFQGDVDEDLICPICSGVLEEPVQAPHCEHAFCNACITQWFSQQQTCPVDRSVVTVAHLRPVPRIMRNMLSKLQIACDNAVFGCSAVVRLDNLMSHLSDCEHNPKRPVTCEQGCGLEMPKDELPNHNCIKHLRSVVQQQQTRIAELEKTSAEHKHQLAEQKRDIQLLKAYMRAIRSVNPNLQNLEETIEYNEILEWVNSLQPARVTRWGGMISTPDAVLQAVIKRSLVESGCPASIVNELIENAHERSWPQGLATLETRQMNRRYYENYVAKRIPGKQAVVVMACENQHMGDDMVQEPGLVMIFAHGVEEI
T1 sequence (P19235 25-508 partner): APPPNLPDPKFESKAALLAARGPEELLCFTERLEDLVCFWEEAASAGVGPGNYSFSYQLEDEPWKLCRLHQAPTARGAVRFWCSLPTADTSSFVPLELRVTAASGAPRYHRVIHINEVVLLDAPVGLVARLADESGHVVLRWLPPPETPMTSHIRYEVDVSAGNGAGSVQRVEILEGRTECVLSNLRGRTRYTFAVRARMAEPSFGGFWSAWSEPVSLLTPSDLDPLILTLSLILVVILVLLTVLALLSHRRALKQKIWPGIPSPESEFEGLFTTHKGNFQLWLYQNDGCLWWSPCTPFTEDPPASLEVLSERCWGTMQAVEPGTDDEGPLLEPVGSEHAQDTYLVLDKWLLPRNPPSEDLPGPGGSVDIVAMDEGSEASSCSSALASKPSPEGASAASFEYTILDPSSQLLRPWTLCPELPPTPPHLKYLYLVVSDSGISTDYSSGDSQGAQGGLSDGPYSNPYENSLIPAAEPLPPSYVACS
Description: To determine if LEN alters EpoR/RNF41 interaction, protein association after LEN treatment was examined. UT-7 cells were treated with increasing concentrations of LEN (0 μM (control), 0.1 μM, 1 μM, and 10 μM) for 1 hour. The cells were then lysed, and the cell lysates were immunoprecipitated for EpoR, and immunoblotted for EpoR and RNF41.

[6] = biological target: T2, RNF41 (Homo sapiens, UniProt Q9H4P4); assay: RNF41 auto-ubiquitination in bortezomib pre-treated UT-7 cells, RNF41 immunoprecipitation and ubiquitin immunoblot; type: cell-based; settings: bortezomib 20 nM 24 hours, then LEN 0.1, 1, 10 μM, 1 hour
T2 construct: assessed through immunoprecipitation of RNF41 and immunoblotting for ubiquitin; endogenous in cells; host or cells: UT-7
T2 sequence (Q9H4P4 1-317): T1 sequence (Q9H4P4 1-317)
Description: as §2

[7] = system: IL3-R; assay: IL3-R (Type 1 receptor) expression in UT-7 cells, immunoblot; type: cell-based; settings: LEN 0.1, 1, 10 μM, 1 hour
Description: as §1

[8] = system: non-del(5q) MDS; settings: MDS patients with non-del(5q); cited from earlier work
[9] = system: JAK2-associated EpoR; settings: Basiorka, et al. Blood 2011; cited from earlier work

Nc1cccc2c1CN(C1CCC(=O)NC1=O)C2=O (stereo not drawn) [LEN, Lenalidomide]
cellular EpoR T1/2 [1]: > 72 h
cellular expression of c-Kit [2]: remained unchanged
LEN induced EpoR expression (EpoR/Actin) with RNF41 overexpression [3]: blocked LEN induced EpoR expression by approximately two-fold
EpoR ubiquitination [4]: corresponding decrease in EpoR ubiquitination
binding of RNF41 to EpoR [5]: Increased binding of RNF41 to EpoR occurs in a concentration-dependent manner
RNF41 auto-ubiquitination [6]: inhibited RNF41 auto-ubiquitination in a concentration-dependent fashion
cellular expression of IL3-R [7]: Upregulation of IL3-R occurred in a concentration-dependent manner
patients likely to be responsive to treatment [8]: approximately 26%
cellular expression of JAK2-associated EpoR [9]: induces cellular expression of JAK2-associated EpoR in a concentration-dependent manner
